# Experimental data taken from paper PMC5309245, “Discovery and Characterization of Diazenylaryl Sulfonic Acids as Inhibitors of Viral and Bacterial Neuraminidases” (Frontiers in Microbiology, 2017).
# “And” between values parts separate entries of the source, which are not always exact repeats. Equal values may be shown once.
# How the values were obtained:
# [1] = molecular target: IAV HK/68 NA (whole virus) (Influenza A virus, UniProt Q91MA2); test: biochemical; design: species or system influenza A virus A/Hong Kong/68 (H3N2); settings: NA inhibition using FL assay IC50, IAV HK/68
# [2] = molecular target: T1, S. pneumoniae DSM20566 NA (NanA) (Streptococcus pneumoniae, UniProt P62575); test: FL NA inhibition assay, S. pneumoniae DSM20566; assay type: biochemical; settings: MUNANA substrate; read-out: NA inhibition using FL assay IC50, S. p. DSM20566
# T1 construct: host or cells: either rNanA from E. coli BL21(DE3) or total precipitated protein of S. pneumoniae DSM20566
# IAV 5258/09 NA = test: Hemagglutination (HA)-based NA inhibition assay, IAV 5258/09; assay type: cell-based, influenza A virus A/Jena/5258/2009 (H1N1); settings: human erythrocytes
# [3] = molecular target: T2, S. pneumoniae DSM20566 NA (Streptococcus pneumoniae, UniProt P62575); test: HA-based NA inhibition assay, S. pneumoniae DSM20566; assay type: cell-based; settings: human erythrocytes
# T2 construct: host or cells: either rNanA from E. coli BL21(DE3) or total precipitated protein of S. pneumoniae DSM20566
# T2 sequence (P62575 54-1035): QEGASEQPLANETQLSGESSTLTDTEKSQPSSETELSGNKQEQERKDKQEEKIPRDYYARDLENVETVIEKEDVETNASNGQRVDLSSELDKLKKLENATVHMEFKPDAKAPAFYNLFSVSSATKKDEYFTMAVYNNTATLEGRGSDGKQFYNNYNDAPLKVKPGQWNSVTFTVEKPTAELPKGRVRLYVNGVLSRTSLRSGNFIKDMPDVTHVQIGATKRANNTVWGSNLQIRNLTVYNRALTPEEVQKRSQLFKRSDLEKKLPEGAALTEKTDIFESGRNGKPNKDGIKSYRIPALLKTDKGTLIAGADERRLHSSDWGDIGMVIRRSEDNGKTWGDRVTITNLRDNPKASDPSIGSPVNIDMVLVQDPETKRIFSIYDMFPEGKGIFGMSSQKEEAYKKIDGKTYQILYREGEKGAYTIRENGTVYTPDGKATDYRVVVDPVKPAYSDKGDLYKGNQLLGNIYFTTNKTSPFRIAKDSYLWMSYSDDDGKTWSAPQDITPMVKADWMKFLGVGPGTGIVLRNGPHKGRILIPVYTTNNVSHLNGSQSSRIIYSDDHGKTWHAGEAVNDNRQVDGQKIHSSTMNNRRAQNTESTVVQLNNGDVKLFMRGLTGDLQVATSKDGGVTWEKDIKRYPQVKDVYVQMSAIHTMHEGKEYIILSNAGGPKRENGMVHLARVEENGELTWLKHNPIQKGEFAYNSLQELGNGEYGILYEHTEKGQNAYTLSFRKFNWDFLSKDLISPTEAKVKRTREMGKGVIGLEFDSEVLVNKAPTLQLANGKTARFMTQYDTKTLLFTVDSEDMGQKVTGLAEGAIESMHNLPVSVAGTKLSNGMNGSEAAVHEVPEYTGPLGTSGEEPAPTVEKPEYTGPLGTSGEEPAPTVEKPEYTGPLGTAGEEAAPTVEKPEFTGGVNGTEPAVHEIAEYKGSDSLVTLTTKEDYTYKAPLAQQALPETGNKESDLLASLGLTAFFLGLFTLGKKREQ
# [4] = molecular target: S. pneumoniae recombinant NanA 8919_LC (Streptococcus pneumoniae, UniProt P62575); test: biochemical; assay type: biochemical, Streptococcus pneumoniae CF8919
# S. pneumoniae recombinant NanA 8919_LC, sequence (P62575 116-833): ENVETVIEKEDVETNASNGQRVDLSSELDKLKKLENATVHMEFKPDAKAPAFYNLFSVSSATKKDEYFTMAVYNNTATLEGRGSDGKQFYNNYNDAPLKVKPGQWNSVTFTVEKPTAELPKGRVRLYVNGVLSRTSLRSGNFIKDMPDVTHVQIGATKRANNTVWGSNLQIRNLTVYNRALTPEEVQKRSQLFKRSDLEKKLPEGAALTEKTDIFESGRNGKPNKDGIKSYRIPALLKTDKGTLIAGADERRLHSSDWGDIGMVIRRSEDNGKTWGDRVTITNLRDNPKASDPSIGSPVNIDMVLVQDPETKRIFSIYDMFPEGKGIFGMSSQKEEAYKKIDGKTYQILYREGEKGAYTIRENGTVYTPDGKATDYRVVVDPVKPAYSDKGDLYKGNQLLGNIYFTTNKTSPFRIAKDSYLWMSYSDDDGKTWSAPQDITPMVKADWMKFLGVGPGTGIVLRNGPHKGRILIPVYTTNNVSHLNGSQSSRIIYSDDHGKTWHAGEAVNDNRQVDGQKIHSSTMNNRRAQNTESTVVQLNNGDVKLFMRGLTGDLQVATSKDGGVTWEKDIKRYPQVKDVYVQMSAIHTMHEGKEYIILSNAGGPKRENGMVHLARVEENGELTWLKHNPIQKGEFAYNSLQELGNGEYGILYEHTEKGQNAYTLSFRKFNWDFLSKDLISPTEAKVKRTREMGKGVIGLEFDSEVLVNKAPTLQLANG
# [5] = molecular target: S. pneumoniae recombinant NanA 20566_LC (Streptococcus pneumoniae, UniProt P62575); test: biochemical; design: species or system Streptococcus pneumoniae DSM20566
# S. pneumoniae recombinant NanA 20566_LC, sequence (P62575 116-833): as above
# [6] = molecular target: S. pneumoniae recombinant NanA 20566_CC (Streptococcus pneumoniae, UniProt P62575); test: biochemical; design: species or system Streptococcus pneumoniae DSM20566
# S. pneumoniae recombinant NanA 20566_CC, sequence (P62575 311-833): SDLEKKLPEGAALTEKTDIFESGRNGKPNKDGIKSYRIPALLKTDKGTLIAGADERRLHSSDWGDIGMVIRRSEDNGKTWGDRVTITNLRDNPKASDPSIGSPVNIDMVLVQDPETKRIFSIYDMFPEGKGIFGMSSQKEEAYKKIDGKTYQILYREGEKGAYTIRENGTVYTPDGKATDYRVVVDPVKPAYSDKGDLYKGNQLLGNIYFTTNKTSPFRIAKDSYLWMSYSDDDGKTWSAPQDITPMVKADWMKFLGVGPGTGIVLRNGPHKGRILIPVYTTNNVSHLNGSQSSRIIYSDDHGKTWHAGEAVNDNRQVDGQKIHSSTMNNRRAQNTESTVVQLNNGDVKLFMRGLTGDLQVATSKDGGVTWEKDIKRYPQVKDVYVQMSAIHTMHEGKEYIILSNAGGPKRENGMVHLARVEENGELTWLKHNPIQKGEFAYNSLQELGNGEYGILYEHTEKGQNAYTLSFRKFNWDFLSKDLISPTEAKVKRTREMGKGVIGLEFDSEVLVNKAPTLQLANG
# [7] = molecular target: S. pneumoniae recombinant NanA 9400_LC (Streptococcus pneumoniae, UniProt P62575); test: biochemical; design: species or system Streptococcus pneumoniae CJ9400
# S. pneumoniae recombinant NanA 9400_LC, sequence (P62575 116-833): as the sequence (P62575 116-833) above
# [8] = molecular target: S. pneumoniae recombinant NanA 9400_CC (Streptococcus pneumoniae, UniProt P62575); test: biochemical; assay type: biochemical, Streptococcus pneumoniae CJ9400
# S. pneumoniae recombinant NanA 9400_CC, sequence (P62575 311-833): as the sequence (P62575 311-833) above
# [9] = molecular target: Influenza virus A/WSN/33 NA-wt (whole virus) (Influenza A virus, UniProt P03470); assay type: biochemical, influenza A virus A/WSN/1933 (H1N1)
# Influenza virus A/WSN/33 NA-wt (whole virus), sequence (P03470 whole entry, looked up): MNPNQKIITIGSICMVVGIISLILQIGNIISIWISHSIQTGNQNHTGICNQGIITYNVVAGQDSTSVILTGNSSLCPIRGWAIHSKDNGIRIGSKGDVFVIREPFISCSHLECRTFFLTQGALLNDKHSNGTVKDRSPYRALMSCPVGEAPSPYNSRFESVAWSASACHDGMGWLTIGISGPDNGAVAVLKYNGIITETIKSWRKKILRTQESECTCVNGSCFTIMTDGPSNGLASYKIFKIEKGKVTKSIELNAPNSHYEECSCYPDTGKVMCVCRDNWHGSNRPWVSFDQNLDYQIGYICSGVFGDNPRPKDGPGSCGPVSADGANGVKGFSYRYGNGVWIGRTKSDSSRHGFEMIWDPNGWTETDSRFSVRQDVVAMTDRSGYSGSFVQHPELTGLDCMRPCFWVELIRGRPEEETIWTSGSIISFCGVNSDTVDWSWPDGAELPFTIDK
# [10] = test system: influenza A virus 8178/09; test: microbe, parasite or virus in culture; assay type: cell-based, influenza A virus A/Jena/8178/2009 (H1N1); settings: Influenza A virus, MDCK, 48 h, read-out: 50% inhibitory concentration, influenza A virus 8178/09
# influenza A virus WSN/33 = test: microbe, parasite or virus in culture; assay type: cell-based, influenza A virus A/WSN/1933 (H1N1); settings: Influenza A virus, WSN, MDCK, 48 h, read-out: 50% inhibitory concentration, influenza A virus WSN/33
# influenza A virus HK/68 = test: microbe, parasite or virus in culture; assay type: cell-based, influenza A virus A/Hong Kong/68 (H3N2); settings: Influenza A virus, MDCK, 48 h, read-out: 50% inhibitory concentration, influenza A virus HK/68
# [11] = test system: 8178/09-, WSN/33-, or HK/68-induced cytopathic effect; test: CPE inhibition assay (viruses not separated); assay type: cell-based; settings: Influenza A virus, MDCK, read-out: IC50 of inhibition of the 8178/09-, WSN/33-, or HK/68-induced cytopathic effect
# S. pneumoniae DSM20566 [12] = test: Microtiter broth microdilution assay, planktonic growth; assay type: cell-based, Streptococcus pneumoniae DSM20566; settings: Streptococcus pneumoniae, DSM20566; 18 h, maximum 50 μM; read-out: 50% inhibitory concentration, S. pneumoniae DSM20566 planktonic growth
# [13] = test system: S. pneumoniae DSM20566 biofilm; test: Biofilm inhibition assay; assay type: cell-based, Streptococcus pneumoniae DSM20566; settings: Streptococcus pneumoniae, DSM20566; 50 μM; read-out: Inhibition of biofilm formation at the maximum tested concentration
# S. pneumoniae DSM20566 [14] = test: Bactericidal or bacteriostatic activity (subculture on blood agar); assay type: cell-based, Streptococcus pneumoniae DSM20566; settings: 50 µM
# [15] = test system: Influenza virus A/Jena/8178/09; assay type: cell-based, influenza A virus A/Jena/8178/2009 (H1N1)
# WSN/33 = assay type: cell-based, influenza A virus A/WSN/1933 (H1N1)
# human erythrocytes [16] = assay type: cell-based; settings: human erythrocytes, 2 h at 4°C
# Description: (§1) Viral (whole virus) and bacterial NA activity as well as their inhibition were measured by using a fluorescence (FL) assay with the substrate 2′-(4-methylumbelliferyl)-α-D-N-acetylneuraminic acid sodium salt hydrate (MUNANA, 100 μM; Sigma-Aldrich GmbH, Taufkirchen, Germany), and/or a hemagglutination (HA)-based NA inhibition assay (HA assay) with human erythrocytes (Institute of Transfusion Medicine, University Hospital Jena, Jena, Germany), both assays as published recently (Richter et al., [2015]). Recombinant NanA (rNanA) and total precipitated bacterial protein of S. pneumoniae DSM20566 were used in FL and HA assays. Interference of the compounds with the FL signal (self-fluorescence and quenching) was excluded as described previously (Richter et al., [2015]). […] Each compound was tested at least three times in both NA inhibition assays.
# Supplementary Table 1. Assay interference phenomena of test compounds in the HA-based […]
# sample concentrations [µM] in viral HA-assay bacterial HA-assay […]
# hem- prevention of erythrocyte hem- erythrocyte agglutinationa virus-induced lysisc agglutinationd lysise […]
# cTest compounds lysed the human erythrocytes (2 h at 4°C). […]
# human erythrocytes [17] = assay type: cell-based; settings: human erythrocytes, 4 h at 37°C and 12 h at 4°C
# Description: as §1
# Supplementary Table 1. […]
# eTest compounds lysed the human erythrocytes (4 h at 37°C and 12 h at 4°C).
# in vitro = settings: dog
smiles,measurement,setting,value
"Cc1cc(N=Nc2ccc(N=Nc3c(O)c(S(=O)(=O)O)cc4cc(S(=O)(=O)O)ccc34)cc2C)ccc1N=Nc1ccc2cc(S(=O)(=O)O)cc(S(=O)(=O)O)c2c1 [Compound 1, 7-[2-[4-[2-[4-[2-(2-hydroxy-3,6-disulfo-1-naphthalenyl)diazenyl]-2-methylphenyl]diazenyl]-2-methylphenyl]diazenyl]-1,3-naphthalenedisulfonic acid]",IC50,[1],1420 ± 440 nM
same,IC50,[2],320 ± 50 nM
same,"NA inhibition using HA assay MIC, IAV 5258/09",IAV 5258/09 NA,10.00 ± 0.00 µM
same,"NA inhibition using HA assay MIC, S. p. DSM20566",[3],7.26 ± 3.75 µM
same,Binding mechanism,[4],Mixed
same,Ki,[4],110 ± 20 nM
same,"alpha (fit printed in Lineweaver-Burk plot, Supplementary Figure 2A)",[4],"7,8"
same,Binding mechanism,[5],Mixed
same,"alpha (fit in Lineweaver-Burk plot, Supplementary Figure 2B)",[5],"12,9"
same,Ki,[5]; Ki,120 ± 10 nM
same,Ki,"[5]; Ki (fit in Lineweaver-Burk plot, Supplementary Figure 2B)",103 nM
same,Binding mechanism,[6],Mixed
same,"alpha (fit in Lineweaver-Burk plot, Supplementary Figure 2C)",[6],"5,5"
same,Ki,[6]; Ki,160 ± 30 nM
same,Ki,"[6]; Ki (fit in Lineweaver-Burk plot, Supplementary Figure 2C)",143 nM
same,Binding mechanism,[7],Mixed
same,Ki,[7]; Ki,190 ± 20 nM
same,Ki,"[7]; Ki (fit printed in Lineweaver-Burk plot, Supplementary Figure 2D)",172 nM
same,Binding mechanism,[8],Mixed
same,Ki,[8],160 ± 10 nM
same,"alpha (fit printed in Lineweaver-Burk plot, Supplementary Figure 2E)",[8],"3,7"
same,Binding mechanism,[9],Mixed
same,binding kinetics (effect of pre-incubation on Ki),[9],fast-binding inhibitor
same,IC50,[10],20400 ± 2510 nM
same,IC50,influenza A virus WSN/33,7170 ± 960 nM
same,IC50,influenza A virus HK/68,18500 ± 9590 nM
same,IC50,[11],< 15000 nM
same,IC50,S. pneumoniae DSM20566 [12],28800 ± 13100 nM
same,inhibition at 50 µM,[13],49%
same,Activity (bactericidal or bacteriostatic),S. pneumoniae DSM20566 [14],bacteriostatic
same,cfu per agar plate,"S. pneumoniae DSM20566 [14]; 18 h, then subculture",> 150
same,Mean reduction in plaque numbers ± SD,[15],96.10 ± 3.45% and 96.46 ± 1.08% and 97.76 ± 0.65% and 94.12 ± 3.06%
same,"Mean ± SD of both experiments, reduction in plaque numbers",[15],95.29 ± 1.65% and 96.93 ± 1.17%
same,"Decrease of plaque formation, compound during the whole replication cycle",WSN/33,up to 100%
same,Plaque numbers after pretreatment of MDCK cells,WSN/33,not affected
same,Reduction of plaque number after pretreatment of the cell-free virus,WSN/33,~ 95%
same,"Reduction of plaque number, compound added during virus adsorption",WSN/33,50%
same,"sample concentrations provoking erythrocyte lysis, viral HA-assay",human erythrocytes [16],no
same,"sample concentrations provoking erythrocyte lysis, bacterial HA-assay",human erythrocytes [17],no
same,CC50,in vitro,> 100000 nM
